Where two headings read alike, the source gives them in different places.
Columns and labels:
human PRMT6 = human PRMT6 (Homo sapiens, UniProt Q96LA8); experiment: biochemical
Description: General Materials. S-adenosylmethionine (SAM), S-adenosylhomocysteine (SAH), bicine, Tween20, dimethylsulfoxide (DMSO), bovine skin gelatin (BSG), sodium butyrate and Tris(2-carboxyethyl)phosphine hydrochloride solution (TCEP) were purchased from Sigma-Aldrich at the highest level of purity possible. ^3H-SAM was purchase from American Radiolabeled Chemicals with a specific activity of 80 Ci/mmol. 384-well streptavidin Flashplates were purchased from PerkinElmer.
Substrates. Peptide representative of human histone H4 residues 36-50 was synthesized with an N-terminal linker-affinity tag motif and a C-terminal amide cap by 21st Century Biochemicals. The peptide was purified by high-performance liquid chromatography (HPLC) to greater than 95% purity and confirmed by liquid chromatography mass spectrometry (LC-MS). The sequence was Biot-Ahx-[…]-amide and contained a monomethylated lysine at position 44 (SEQ ID NO.:5).
Molecular Biology: Full-length human PRMT6 (NM_018137.2) transcript clone was amplified from an HEK 293 cDNA library, incorporating a flanking 5′ sequence encoding a FLAG tag ([…]) (SEQ ID NO.:6) fused directly to Ser 2 of PRMT6 and a 3′ sequence encoding a hexa His sequence (HHHHHH) (SEQ ID NO.: 17) fused directly to Asp 375. The amplified gene was subcloned into pFastBacMam (Viva Biotech).
Protein Expression. Recombinant baculovirus were generated according to Bac-to-Bac kit instructions (Life Technologies). […] Infections were carried out at 37° C. for 48 hours, harvested by centrifugation, and stored at −80° C. for purification.
Protein Purification. […] Column was washed with 20 mM imidazole in the same buffer and Flag-PRMT6-His was eluted with 150 mM imidazole. Pooled fractions were dialysed against buffer Ni-A and further purified by anti-flag M2 affinity chromatography. Flag-PRMT6-His was eluted with 200 ug/ml FLAG peptide in the same buffer. Pooled fractions were dialysed in 20 mM Tris, 150 mM NaCl, 10% glycerol and 5 mM β-mercaptoethanol, pH 7.8. The purity of recovered protein was 95%.
General Procedure for PRMT6 Enzyme Assays on Peptide Substrates. The assays were all performed in a buffer consisting of 20 mM Bicine (pH=7.6), 1 mM TCEP, 0.005% BSG, and 0.002% Tween 20, prepared on the day of use. Compounds in 100% DMSO (1 ul) were spotted into a polypropylene 384-well V-bottom plates (Greiner) using a Platemate Plus outfitted with a 384-channel head (Thermo Scientific). DMSO (1 ul) was added to Columns 11, 12, 23, 24, rows A-H for the maximum signal control and 1 ul of SAH, a known product and inhibitor of PRMT6, was added to columns 11, 12, 23, 24, rows I-P for the minimum signal control. A cocktail (40 ul) containing the PRMT6 enzyme was added by Multidrop Combi (Thermo-Fisher). The compounds were allowed to incubate with PRMT6 for 30 min at room temperature, then a cocktail (10 ul) containing SAM and peptide was added to initiate the reaction (final volume=51 ul). The final concentrations of the components were as follows: PRMT6 was 1 nM, ^3H-SAM was 200 nM, non-radiolabeled SAM was 250 nM, peptide was 75 nM, SAH in the minimum signal control wells was 1 mM, and the DMSO concentration was 2%. The assays were stopped by the addition of non-radiolabeled SAM (10 ul) to a final concentration of 400 uM, which dilutes the ^3H-SAM to a level where its incorporation into the peptide substrate is no longer detectable. 50 ul of the reaction in the 384-well polypropylene plate was then transferred to a 384-well Flashplate and the biotinylated peptides were allowed to bind to the streptavidin surface for at least 1 hour before being washed once with 0.1% Tween20 in a Biotek EL×405 plate washer. The plates were then read in a PerkinElmer TopCount plate reader to measure the quantity of ^3H-labeled peptide bound to the Flashplate surface, measured as disintegrations per minute (dpm) or alternatively, referred to as counts per minute (cpm). […]

[1] = tested on: RKO cells, mono-methyl arginine; experiment: RKO Methylation Assay (In Cell Western for mono-methyl arginine); assay type: cell-based; details: Homo sapiens
Description: RKO adherent cells were purchased from ATCC (American Type Culture Collection), Manassas, Va., USA. DMEM/Glutamax medium, penicillin-streptomycin, heat inactivated fetal bovine serum, 0.05% trypsin and D-PBS were purchased from Life Technologies, Grand Island, N.Y., USA. Odyssey blocking buffer, 800CW goat anti-rabbit IgG (H+L) antibody, and Licor Odyssey infrared scanner were purchased from Licor Biosciences, Lincoln, Nebr., USA. Mono-methyl arginine antibody was purchased from Cell Signaling Technology, Danvers, Mass., USA. Methanol was purchased from VWR, Franklin, Mass., USA. 10% Tween 20 was purchased from KPL, Inc., Gaithersburg, Md., USA. DRAQ5 was purchased from Biostatus Limited, Leicestershire, UK.
RKO adherent cells were maintained in growth medium (DMEM/Glutamax medium supplemented with 10% v/v heat inactivated fetal bovine serum and 100 units/mL penicillin-streptomycin) and cultured at 37° C. under 5% CO2.
Cell Treatment, in Cell Western (ICW) for Detection of Mono-Methyl Arginine and DNA Content. […] Compound (100 nL) from a 96-well source plate was added directly to 384 well cell plate. Plates were incubated at 37° C., 5% CO2 for 72 hours. After three days of incubation, plates were brought to room temperature outside of the incubator for ten minutes and blotted on paper towels to remove cell media. 50 μL of ice cold 100% methanol was added directly to each well and incubated for 30 min at room temperature. After 30 min, plates were transferred to a Biotek EL406 plate washer and washed 2 times with 100 μL per well of wash buffer (1×PBS). Next 60 μL per well of Odyssey blocking buffer (Odyssey Buffer with 0.1% Tween 20 (v/v)) were added to each plate and incubated 1 hour at room temperature. Blocking buffer was removed and 20 μL per well of primary antibody was added (mono-methyl arginine diluted 1:200 in Odyssey buffer with 0.1% Tween 20 (v/v)) and plates were incubated overnight (16 hours) at 4° C. Plates were washed 5 times with 100 μL per well of wash buffer. […] The plates were washed 5 times with 100 μL per well wash buffer then 2 times with 100 μL per well of water. Plates were allowed to dry at room temperature then imaged on the Licor Odyssey machine which measures integrated intensity at 700 nm and 800 nm wavelengths. Both 700 and 800 channels were scanned.
Calculations: First, the ratio for each well was determined by:
Each plate included fourteen control wells of DMSO only treatment (minimum activation) as well as fourteen control wells for maximum activation treated with 20 μM of a reference compound. The average of the ratio values for each control type was calculated and used to determine the percent activation for each test well in the plate. Reference compound was serially diluted three-fold in DMSO for a total of nine test concentrations, beginning at 20 μM. Percent activation was determined and EC30 curves were generated using triplicate wells per concentration of compound.

[2] = biochemical evaluation, peptide substrate, read-out: PRMT6 IC50
[3] = single experiment or average of multiple experiments, read-out: PRMT6 biochemical evaluation (numerical)
[4] = In Cell Western EC30, RKO cells, 72 hours, single experiment or average of multiple experiments, read-out: RGG ICW
[5] = In Cell Western, RKO cells, 72 hours, read-out: RGG ICW EC30
[6] = RKO, 72 h, read-out: RGG ICW EC30

Chain of human PRMT6 (Q96LA8 with tags, fused parts or gaps): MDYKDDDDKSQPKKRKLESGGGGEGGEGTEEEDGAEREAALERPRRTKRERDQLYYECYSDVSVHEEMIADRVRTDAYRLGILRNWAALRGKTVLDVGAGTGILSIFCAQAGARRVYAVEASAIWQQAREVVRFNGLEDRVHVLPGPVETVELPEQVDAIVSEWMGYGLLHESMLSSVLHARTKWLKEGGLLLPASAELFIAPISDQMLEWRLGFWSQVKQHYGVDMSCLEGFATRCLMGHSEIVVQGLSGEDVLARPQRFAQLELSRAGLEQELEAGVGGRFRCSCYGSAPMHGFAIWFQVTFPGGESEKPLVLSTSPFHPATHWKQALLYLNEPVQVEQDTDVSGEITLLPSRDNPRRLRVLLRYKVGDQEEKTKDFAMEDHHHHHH

| Structure (SMILES) | IC50 (human PRMT6; [2]) [nM] | IC50 (human PRMT6; [3]) [nM] | EC30 [1, 4] [nM] | EC30 [1, 5] [nM] | EC30 [1, 6] [nM] | EC30 ([1]; RKO, 72 h, read-out: RGG ICW) [nM] |
| --- | --- | --- | --- | --- | --- | --- |
| CNCCN(C)Cc1n[nH]c2ccc(OCc3cccc(C#N)c3)cc12 [Compound 14] | < 100 | 5.29 | 4140 | 3010 to 12000 |  |  |
| CNCCN(C)Cc1n[nH]c2ccc(OCc3cc[nH]n3)cc12 [Compound 17] | < 100 | 7.81 | 8990 |  | > 12000 |  |
| CNCCN(C)Cc1n[nH]c2ccc(OC3CCCCC3)cc12 [Compound 18] | < 100 | 10.3 | 582 | < 3000 |  |  |
| CNCCN(C)Cc1n[nH]c2ccc(OCC(C)c3ccccc3)cc12 (stereo not shown) [Compound 19] | < 100 | 19.3 | 680 | < 3000 |  |  |
| CNCCN(C)Cc1n[nH]c2ccc(OCc3ccn(C)n3)cc12 [Compound 20] | < 100 | 37.4 |  |  | < 3000 | 710 |
| CNCCN(C)Cc1n[nH]c2cccc(OCc3ccccc3)c12 [Compound 21] | < 100 | 21.5 | 912 | < 3000 |  |  |
| CNCCN(C)Cc1n[nH]c2ccc(Oc3cccc(OC)c3)cc12 [Compound 22] | < 100 | 33.1 | 1490 | < 3000 |  |  |
| CNCCN(C)Cc1n[nH]c2ccc(OCc3ccc(C(C)=O)cc3)cc12 [Compound 23] | < 100 | 96.6 | 1760 | < 3000 |  |  |
| CNCCN(C)Cc1n[nH]c2ccc(Oc3ccccc3OC)cc12 [Compound 24] | 101 to 1000 | 80.3 |  |  | < 3000 | 1930 |
| CNCCN(C)Cc1n[nH]c2ccc(OC3CCOC3)cc12 (stereo not shown) [Compound 25, N^1,N^2-dimethyl-N^1-((5-((tetrahydrofuran-3-yl)oxy)-1H-indazol-3-yl)methyl)ethane-1,2-diamine] | < 100 | 5.05 | 2660 | < 3000 |  |  |
| CNCCN(C)Cc1n[nH]c2ccc(Oc3cccc(C)c3)cc12 [Compound 26] | 101 to 1000 | 201 |  |  | 3010 to 12000 | 3070 |
| CNCCN(C)Cc1n[nH]c2ccc(Oc3cccc(Cl)c3)cc12 [Compound 27, N^1-((5-(3-chlorophenoxy)-1H-indazol-3-yl)methyl)-N^1,N^2-dimethylethane-1,2-diamine] | 101 to 1000 | 53.7 |  |  | 3010 to 12000 | 4470 |
| CNCCN(C)Cc1n[nH]c2ccc(Oc3cccc(C#N)c3)cc12 [Compound 28] | 101 to 1000 | 150 |  |  | 3010 to 12000 | 4620 |

From patent US9765035B2 (priority 2013, dated 2017)
